Values of other authors as cited in patent publication US12440455B2, “Methods of administering cannabinoids” (IMPACT NATURALS, INC., priority 2022, dated 2025).

Tests used:
SARS-CoV-2 = settings: Nguyen et al., Sci. Adv. 8, eabi6110 (2022)
CB2 = CB2 (Homo sapiens, UniProt P34972); settings: WHO assessment
Chain of CB2 (P34972 whole entry, species assumed): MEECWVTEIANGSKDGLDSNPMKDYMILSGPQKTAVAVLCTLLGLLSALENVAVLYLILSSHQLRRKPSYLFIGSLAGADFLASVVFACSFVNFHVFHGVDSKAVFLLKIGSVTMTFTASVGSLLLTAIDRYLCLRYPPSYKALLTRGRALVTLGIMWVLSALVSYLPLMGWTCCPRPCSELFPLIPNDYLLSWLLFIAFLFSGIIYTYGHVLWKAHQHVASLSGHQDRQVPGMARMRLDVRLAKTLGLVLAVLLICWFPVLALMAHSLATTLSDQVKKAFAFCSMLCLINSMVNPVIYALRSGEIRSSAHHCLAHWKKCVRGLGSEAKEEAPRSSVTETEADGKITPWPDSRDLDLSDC

C=C(C)[C@@H]1CCC(C)=C[C@H]1c1c(O)cc(CCCCC)cc1O [Cannabidiol]
inhibition of SARS-CoV-2 replication (SARS-CoV-2): inhibit SARS-CoV-2 replication | affinity to CB2 (CB2): low affinity | aqueous solubility: approximately 0.013 milligrams per milliliter
